According to ChEMBL document CHEMBL2321761, “Discovery of novel dual inhibitors of the wild-type and the most prevalent drug-resistant mutant, S31N, of the M2 proton channel from influenza A virus” (J Med Chem, 2013):
The source made the active and inactive calls. No cut-off for these calls is given here.

What was measured:
[1] = tested on: Influenza A virus; assay: Antiviral activity against influenza A virus A/WSN/33-S31N infected in dog MDCK cells after 2 days by naphthalene black dye staining based plaque reduction assay; assay type: functional, organism-based
[2] = tested on: Influenza A virus; assay: Antiviral activity against wild type influenza A virus A/WSN/33-N31S infected in dog MDCK cells at 1 uM after 2 days by naphthalene black dye staining based plaque reduction assay; assay type: functional, organism-based

Row | SMILES | EC50 [1] | inhibition [2]
1 | Oc1ccc(CNC23CC4CC(CC(C4)C2)C3)c(O)c1 | 3.2 µM | Active
2 | NC12CC3CC(CC(C3)C1)C2 [AMANTADINE] | 22.5 µM | –
